Converted amounts (≈) assume the structure as drawn. Positions of bridges follow the written chain, without caps; N, C: chain ends. Residues, ends and D or L forms follow the SMILES beside them.
Legend:
[1] = test system: S. epidermidis ATCC 35984; experiment: MBC assay; assay type: cell-based, Staphylococcus epidermidis; conditions: colony counting, 99.9% criterion
Excerpt: (§1) Microbial cultures are quantified at concentrations surpassing the MIC to ascertain the number of viable bacterial cells. The lowest concentration at which the number of colonies is less than 99.9% at the time of initial inoculation is defined as MBC, which is capable of killing the bacteria.

[2] = test system: Streptococcus dysgalactiae CVCC 3938; experiment: MIC assay; assay type: cell-based; conditions: 96-well plate, 10^5 CFU/mL, 37 °C, 12 to 18 h
Experimental: (§2) A series of concentration gradients of peptide solution (10, 20, 40, 80, 160, 320, 640, and 1280 µg/mL) and the bacterial suspension (10^5 CFU/mL) were added to a 96-well plate at a volume ratio of 10 µL: 90 µL. Subsequently, the plate was incubated at 37 °C for 12 to 18 h. The concentration in the final well of the 96-well plate where no bacterial growth is evident corresponds to the MIC value.

[3] = test system: Staphylococcus epidermidis ATCC 12228; experiment: MIC assay; assay type: cell-based; conditions: 96-well plate, 10^5 CFU/mL, 37 °C, 12 to 18 h
Experimental: as §2

[4] = test system: Streptococcus agalactiae ATCC 13813; experiment: MIC assay; assay type: cell-based; conditions: 96-well plate, 10^5 CFU/mL, 37 °C, 12 to 18 h
Experimental: as §2

[5] = test system: Pseudomonas aeruginosa ATCC 10104; experiment: MIC assay; assay type: cell-based; conditions: 96-well plate, 10^5 CFU/mL, 37 °C, 12 to 18 h
Experimental: as §2

[6] = test system: Escherichia coli ATCC 25922; experiment: MIC assay; assay type: cell-based; conditions: 96-well plate, 10^5 CFU/mL, 37 °C, 12 to 18 h
Experimental: as §2

[7] = test system: Staphylococcus aureus ATCC 43300; experiment: MIC assay; assay type: cell-based; conditions: 96-well plate, 10^5 CFU/mL, 37 °C, 12 to 18 h
Experimental: as §2

HaCaT cells = experiment: Cytotoxicity analysis (CCK-8); assay type: cell-based, human; conditions: 2–256 µg/mL, 24 h, CCK-8, absorbance 450 nm, six replicates
Experimental: HaCaT cells, at a density of 2.5 × 10^5 cells/mL, were inoculated into 96-well plates and incubated in a cell culture incubator for 24 h. Following the removal of the medium, an equal volume of peptide solution, ranging in concentration from 2 to 256 µg/mL, was added, and the cells were incubated for an additional 24 h. The medium was subsequently removed, and the wells were washed three times with saline. CCK-8 solution ([…], 100 µL per well) was then added, and the plates were incubated for 2 h. Absorbance was measured at 450 nm using a microplate reader. Saline served as the negative control, while the medium without cells was used as the blank control. Six replicates were set for each concentration. Cell survival is calculated as follows: (As − Ab)/(Ac − Ab) × 100%.
As: Absorbance value of the experimental group (medium containing cells, sample, CCK-8)
Ac: Absorbance value of the control group (medium containing cells, no sample, CCK-8)
Ab: Absorbance value of the blank group (medium without cells, no sample, CCK-8)

S. aureus CVCC 546 [8] = experiment: MBC assay; assay type: cell-based, Staphylococcus aureus; conditions: colony counting, 99.9% criterion
Excerpt: as §1

S. aureus ATCC 25923 [9] = experiment: MBC assay; assay type: cell-based, Staphylococcus aureus; conditions: colony counting, 99.9% criterion
Excerpt: as §1

[10] = test system: Streptococcus dysgalactiae CVCC 3938; experiment: MBC assay; assay type: cell-based; conditions: colony counting, 99.9% criterion
Excerpt: as §1

[11] = test system: Staphylococcus epidermidis ATCC 12228; experiment: MBC assay; assay type: cell-based; conditions: colony counting, 99.9% criterion
Excerpt: as §1

[12] = test system: Streptococcus agalactiae ATCC 13813; experiment: MBC assay; assay type: cell-based; conditions: colony counting, 99.9% criterion
Excerpt: as §1

[13] = test system: Pseudomonas aeruginosa ATCC 10104; experiment: MBC assay; assay type: cell-based; conditions: colony counting, 99.9% criterion
Excerpt: as §1

[14] = test system: Escherichia coli ATCC 25922; experiment: MBC assay; assay type: cell-based; conditions: colony counting, 99.9% criterion
Excerpt: as §1

[15] = test system: Staphylococcus aureus ATCC 43300; experiment: MBC assay; assay type: cell-based; conditions: colony counting at concentrations surpassing the MIC, 99.9% criterion
Excerpt: as §1

S. aureus CVCC 546 [16] = experiment: MIC assay; assay type: cell-based, Staphylococcus aureus; conditions: 96-well plate, 10^5 CFU/mL, 37 °C, 12 to 18 h
Experimental: as §2

S. aureus ATCC 25923 [17] = experiment: MIC assay; assay type: cell-based, Staphylococcus aureus; conditions: 96-well plate, 10^5 CFU/mL, 37 °C, 12 to 18 h
Experimental: as §2

mouse erythrocytes = experiment: Hemolytic activity; assay type: cell-based; conditions: 1 h, 37 °C, absorbance 540 nm
Experimental: Equal volumes of the erythrocyte suspension and the peptide dilutions were combined and incubated for one hour at 37 °C. Subsequently, the mixture was centrifuged at 2000 rpm for 5 min, and the supernatant was transferred to a 96-well plate. The absorbance was then measured at 540 nm. Triton X-100 and physiological saline were employed as positive and negative controls, respectively. The percentage of hemolysis was calculated via the following formula:Hemolysis (%) = [(Apeptide − Asaline)/(A0.1% Triton X-100 − Asaline)] × 100%.

[18] = test system: S. epidermidis ATCC 35984; experiment: MIC assay; assay type: cell-based, Staphylococcus epidermidis; conditions: 96-well plate, 10^5 CFU/mL, 37 °C, 12 to 18 h
Experimental: as §2

[19] = concentration range 20–2560 µg/mL

SMILES | MBC [1] | MIC [2] | MIC [3] | MIC [4] | MIC [5] | MIC [6] | MIC [7] | cytotoxicity towards HaCaT cells (HaCaT cells) | MBC (S. aureus CVCC 546 [8]) | MBC (S. aureus ATCC 25923 [9]) | MBC [10] | MBC [11] | MBC [12] | MBC [13] | MBC [14] | MBC [15] | MIC (S. aureus CVCC 546 [16]) | MIC (S. aureus ATCC 25923 [17]) | MIC [18] | hemolysis (mouse erythrocytes; [19]) | other results
CC[C@H](C)[C@@H]1NC(=O)[C@H](CO)NC(=O)[C@H](CCCCN)NC(=O)[C@@H]2CSSC[C@@H](C(=O)N[C@@H](Cc3ccc(O)cc3)C(=O)O)NC(=O)[C@H](CCCCN)NC(=O)[C@@H]3CSSC[C@H](NC(=O)[C@H](CCCCN)NC(=O)[C@H](CCSC)NC(=O)[C@H](CC(=O)O)NC(=O)[C@H](CC(=O)O)NC(=O)[C@H](CCC(=O)O)NC(=O)[C@H](CO)NC(=O)[C@H](Cc4c[nH]c5ccccc45)NC(=O)[C@@H]4CCCN4C(=O)CNC(=O)[C@H](CC(N)=O)NC(=O)[C@@H](NC(=O)CNC(=O)[C@H](Cc4ccccc4)NC(=O)CN)CSSC[C@H](NC(=O)[C@H](Cc4ccc(O)cc4)NC(=O)CNC(=O)CNC(=O)[C@H](CCCCN)NC(=O)[C@H](Cc4ccc(O)cc4)NC(=O)CNC(=O)[C@H](CCCCN)NC1=O)C(=O)N[C@@H](C)C(=O)N[C@@H](CCCCN)C(=O)NCC(=O)NCC(=O)N[C@@H](Cc1ccccc1)C(=O)N[C@@H](CC(C)C)C(=O)N3)C(=O)N[C@@H](Cc1c[nH]cn1)C(=O)N[C@@H](CC(N)=O)C(=O)N[C@@H](Cc1c[nH]cn1)C(=O)N2 [PPI42, reference compound] (H-GFGCNGPWSEDDMKCHNHCKSIKGYKGGYCAKGGFLCKCY-OH; disulfide 4-30, 15-37, 19-39) | 8 mg/L (≈ 1.82 µM) | 4 mg/L (≈ 0.912 µM) | 4 mg/L (≈ 0.912 µM) | 0.5 mg/L (≈ 0.114 µM) | >64 mg/L | >64 mg/L | 8 mg/L (≈ 1.82 µM) | growth-promoting effects | 4 mg/L (≈ 0.912 µM) | 16 mg/L (≈ 3.65 µM) | 4 mg/L (≈ 0.912 µM) | 8 mg/L (≈ 1.82 µM) | 0.5 mg/L (≈ 0.114 µM) | >64 mg/L | >64 mg/L | 8 mg/L (≈ 1.82 µM) | 2 mg/L (≈ 0.456 µM) | 8 mg/L (≈ 1.82 µM) | 2 mg/L (≈ 0.456 µM) | – | hemolysis (mouse erythrocytes; 2560 µg/mL): 10%; hemolysis (mouse erythrocytes; up to 1280 µg/mL): minimal hemolysis
CC[C@H](C)[C@@H]1NC(=O)[C@H](CO)NC(=O)[C@H](CCCCN)NC(=O)[C@@H]2CSSC[C@@H](C(=O)N[C@@H](Cc3ccc(O)cc3)C(=O)O)NC(=O)[C@H](CCCCN)NC(=O)[C@@H]3CSSC[C@H](NC(=O)[C@H](CCCCN)NC(=O)[C@H](CCSC)NC(=O)[C@H](CC(=O)O)NC(=O)[C@H](CC(=O)O)NC(=O)[C@H](CCC(=O)O)NC(=O)[C@H](CC(N)=O)NC(=O)[C@H](Cc4c[nH]c5ccccc45)NC(=O)[C@@H]4CCCN4C(=O)CNC(=O)[C@H](CC(N)=O)NC(=O)[C@@H](NC(=O)CNC(=O)[C@H](Cc4ccccc4)NC(=O)CN)CSSC[C@H](NC(=O)[C@H](Cc4ccc(O)cc4)NC(=O)CNC(=O)CNC(=O)[C@H](CCCCN)NC(=O)[C@H](Cc4ccc(O)cc4)NC(=O)CNC(=O)[C@H](CCCCN)NC1=O)C(=O)N[C@@H](C)C(=O)N[C@@H](CCCCN)C(=O)NCC(=O)NCC(=O)N[C@@H](Cc1ccccc1)C(=O)N[C@@H](CC(C)C)C(=O)N3)C(=O)N[C@@H](Cc1c[nH]cn1)C(=O)N[C@@H](CC(N)=O)C(=O)N[C@@H](Cc1c[nH]cn1)C(=O)N2 [PPI45] (H-GFGCNGPWNEDDMKCHNHCKSIKGYKGGYCAKGGFLCKCY-OH; disulfide 4-30, 15-37, 19-39) | 16 mg/L (≈ 3.62 µM) | 1 mg/L (≈ 0.226 µM) | 4 mg/L (≈ 0.906 µM) | 0.5 mg/L (≈ 0.113 µM) | >64 mg/L | >64 mg/L | 4 mg/L (≈ 0.906 µM) | did not exhibit cytotoxicity | 4 mg/L (≈ 0.906 µM) | 16 mg/L (≈ 3.62 µM) | 4 mg/L (≈ 0.906 µM) | 4 mg/L (≈ 0.906 µM) | 0.5 mg/L (≈ 0.113 µM) | >64 mg/L | >64 mg/L | 4 mg/L (≈ 0.906 µM) | 4 mg/L (≈ 0.906 µM) | 16 mg/L (≈ 3.62 µM) | 16 mg/L (≈ 3.62 µM) | no hemolysis | –
CC[C@H](C)[C@@H]1NC(=O)[C@H](CO)NC(=O)[C@H](CCCCN)NC(=O)[C@@H]2CSSC[C@@H](C(=O)N[C@@H](Cc3ccc(O)cc3)C(=O)O)NC(=O)[C@H](CCCCN)NC(=O)[C@@H]3CSSC[C@H](NC(=O)[C@H](CCCNC(=N)N)NC(=O)[C@H](CC(C)C)NC(=O)[C@H](CC(=O)O)NC(=O)[C@H](CC(=O)O)NC(=O)[C@H](CCC(=O)O)NC(=O)[C@H](CO)NC(=O)[C@H](Cc4c[nH]c5ccccc45)NC(=O)[C@@H]4CCCN4C(=O)CNC(=O)[C@H](CC(N)=O)NC(=O)[C@@H](NC(=O)CNC(=O)[C@H](Cc4ccccc4)NC(=O)CN)CSSC[C@H](NC(=O)[C@H](Cc4ccc(O)cc4)NC(=O)CNC(=O)CNC(=O)[C@H](CCCCN)NC(=O)[C@H](Cc4ccc(O)cc4)NC(=O)CNC(=O)[C@H](CCCCN)NC1=O)C(=O)N[C@@H](C)C(=O)N[C@@H](CCCCN)C(=O)NCC(=O)NCC(=O)N[C@@H](Cc1ccccc1)C(=O)N[C@@H](CC(C)C)C(=O)N3)C(=O)N[C@@H](Cc1c[nH]cn1)C(=O)N[C@@H](CC(N)=O)C(=O)N[C@@H](Cc1c[nH]cn1)C(=O)N2 [PPI47] (H-GFGCNGPWSEDDLRCHNHCKSIKGYKGGYCAKGGFLCKCY-OH; disulfide 4-30, 15-37, 19-39) | 16 mg/L (≈ 3.64 µM) | 2 mg/L (≈ 0.455 µM) | 4 mg/L (≈ 0.909 µM) | 0.5 mg/L (≈ 0.114 µM) | >64 mg/L | >64 mg/L | 4 mg/L (≈ 0.909 µM) | did not exhibit cytotoxicity | 4 mg/L (≈ 0.909 µM) | 16 mg/L (≈ 3.64 µM) | 4 mg/L (≈ 0.909 µM) | 8 mg/L (≈ 1.82 µM) | 0.5 mg/L (≈ 0.114 µM) | >64 mg/L | >64 mg/L | 8 mg/L (≈ 1.82 µM) | 4 mg/L (≈ 0.909 µM) | 16 mg/L (≈ 3.64 µM) | 16 mg/L (≈ 3.64 µM) | no hemolysis | –

From publication PMC11764660, “Self-Assembled Peptide Hydrogels PPI45 and PPI47: Novel Drug Candidates for Staphylococcus aureus Infection Treatment” (Gels, 2025)
